Legend:
[1] = In vitro metabolic stability in rat hepatocytes; assay type: in vitro ADME; conditions: 1 μM, in vitro metabolic stability given as calculated maximal oral bioavailability
Experimental: Determination of in vitro metabolic stability in rat hepatocytes (including calculation of hepatic in vivo blood clearance (CL))
Hepatocytes from Han Wistar rats were isolated via a 2-step perfusion method. After perfusion, the liver was carefully removed from the rat: the liver capsule was opened and the hepatocytes were gently shaken out into a Petri dish with ice-cold Williams' medium E (WME). The resulting cell suspension was filtered through sterile gaze in 50 mL falcon tubes and centrifuged at 50×g for 3 min at room temperature. The cell pellet was resuspended in 30 mL WME and centrifuged through a Percoll® gradient for 2 times at 100×g. The hepatocytes were washed again with WME and resuspended in medium containing 5% FCS. Cell viability was determined by trypan blue exclusion.
The test compound was added to a final concentration of 1 μM. […] Samples were frozen at −20° C. overnight, subsequently centrifuged for 15 minutes at 3000 rpm and the supernatant was analyzed with an Agilent 1200 HPLC-system with LCMS/MS detection.
The half-life of a test compound was determined from the concentration-time plot. From the half-life (kel: slope of concentration-time plot; half-life=ln 2/kel) the intrinsic clearances were calculated. Together with the additional parameters liver blood flow, amount of liver cells in vivo and in vitro.
(§1) Metabolic instability is often the main clearance mechanism of xenobiotica leading to a high CL and low bioavailability which may eventually result in a short half-life and a low exposure after oral administration. Thus, reducing the susceptibility of metabolic degradation usually leads to a more favourable pharmacokinetic profile. When using liver microsomes as incubation matrix main phase I metabolic reactions, typically oxidoreductive reactions by cytochrome P450 enzymes and flavin mono-oxygenases (FMO) and hydrolytic reactions by esterases/amidases/epoxidhydrolases, are described. When the incubation of the test compound is performed in a hepatocyte matrix all potential hepatic metabolic processes (phase I and phase II) are covered.

[2] = In vitro metabolic stability in liver microsomes (calculation of CL and Fmax); assay type: in vitro ADME, human; conditions: 1 μM, in vitro metabolic stability given as calculated maximal oral bioavailability
Experimental: Determination of in vitro metabolic stability in microsomes (including calculation of hepatic in vivo blood clearance (CL) and of maximal oral bioavailability (Fmax))
The metabolic assay was started shortly afterwards by adding the test compound to the incubation at a final volume of 1 mL. Organic solvent in the incubations was limited to ≤0.01% dimethylsulfoxide (DMSO) and ≤1% acetonitrile. […] Samples were frozen at −20° C. overnight, subsequently centrifuged for 15 minutes at 3000 rpm and the supernatant was analyzed with an Agilent 1200 HPLC-system with LCMS/MS detection.
The half-life of a test compound was determined from the concentration-time plot. From the half-life (kel: slope of concentration-time plot; half-life=ln 2/kel) the intrinsic clearances were calculated. Together with the additional parameters liver blood flow, specific liver weight and microsomal protein content the hepatic in vivo blood clearance (CL) and the maximal oral bioavailability (Fmax) were calculated for the different species.
as §1

[3] = Human liver cytosol stability assay; assay type: in vitro ADME; conditions: 4 h incubation, 37° C.
Experimental: Human Liver Cytosol Stability Assay
Method description: Human liver cytosol (pooled, >30 male and female donors) was incubated with individual test compounds in order to compare the extent of depletion of test compound and formation of the respective oxidised metabolite. […] An incubation volume of 1000 μL was used. The test compound was added from a stock solution in acetonitrile at 1 or 10 μM concentration in the incubation. Incubations were performed at 37° C. Reactions were stopped at 0 h and 4 h after incubation by addition of 100 μL acetonitrile to 250 μL of incubation mixture. Precipitated proteins were removed by centrifugation at approximately 3000 rpm. The supernatants were stored at approximately −20° C. until they were analysed. […]
Data analysis: The depletion of the test compound and formation of the corresponding metabolites were determined by decrease or increase of the corresponding peak area in the chromatogram after UV detection at approximately 300 nm 4 h after incubation compared to that at 0 h after incubation. […]

vaginal hyperalgesia = assay: Rat dyspareunia model (visceromotor response to vaginal distension); assay type: in vivo; conditions: 15 mg/kg oral b.i.d. during 2 weeks, 5 and 6 weeks post-implantation
Source text: The visceromotor response (VMR) to vaginal distension was used in conscious animals as an objective measure of vaginal sensitivity. Briefly, animals in estrus phase were surgically implanted with biopsies of left uterine horn (3×3 mm) around alternate cascade mesenteric arteries that supply the small intestine (4 pieces) and on the wall of the distal colon (2 pieces). To measure VMR response, 2 Teflon-coated wire electrodes were sutured in the external oblique abdominal muscle, and tunneled subcutaneously to be exteriorized at the base of the neck for future access. On the day of VMR assessment, a lubricated small balloon (1 cm length) was inserted into the mid-vaginal canal. […] The electrodes were connected to an amplifier (Animal Bio Amp, ADInstruments), and the abdominal electromyographic signal was recorded using a data acquisition system (PowerLab, ADInstruments) for off-line analysis using LabChart version 7. The number of abdominal muscle contractions was counted manually for each 0.1 ml distension step, as an index of vaginal pain. […] Statistical Analysis All data were expressed as mean±standard deviation (s.d.), for the number (n) of measured rats per group. […] Planned comparison of means (matched-volume versus vehicle) was performed using a Bonferroni post hoc test, provided that a main effect was detected. […]

CYP2C9 = CYP2C9 (Homo sapiens (Human), UniProt P11712); assay: CYP inhibition assay, CYP2C9; assay type: in vitro ADME; conditions: human liver microsomes, probe diclofenac
Chain of CYP2C9 (P11712 whole entry): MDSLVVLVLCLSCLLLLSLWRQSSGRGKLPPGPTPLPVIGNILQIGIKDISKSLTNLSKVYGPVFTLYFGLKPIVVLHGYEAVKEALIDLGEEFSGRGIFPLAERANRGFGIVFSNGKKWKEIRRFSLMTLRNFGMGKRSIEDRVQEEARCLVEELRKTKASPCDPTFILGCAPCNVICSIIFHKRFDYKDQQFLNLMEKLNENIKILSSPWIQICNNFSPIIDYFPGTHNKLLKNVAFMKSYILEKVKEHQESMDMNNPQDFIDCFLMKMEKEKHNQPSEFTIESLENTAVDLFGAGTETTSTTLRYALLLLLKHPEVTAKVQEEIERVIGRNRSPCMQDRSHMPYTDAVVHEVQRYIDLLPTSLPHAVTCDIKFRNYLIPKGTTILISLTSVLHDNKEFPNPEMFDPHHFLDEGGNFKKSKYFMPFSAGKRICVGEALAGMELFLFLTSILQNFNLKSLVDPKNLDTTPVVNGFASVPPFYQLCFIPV
Experimental: (§2) Method Description CYP Inhibition Assay
(§3) Data analysis: The CYP-mediated activities in the presence of inhibitors were expressed as percentages of the corresponding control values. A sigmoid-shaped curve was fitted to the data, and the enzyme inhibition parameter IC50 was calculated using a nonlinear least-squares regression analysis of the plot of percent control activity versus concentration of the test inhibitor.

CYP3A4 = CYP3A4 (Homo sapiens (Human), UniProt P08684); assay: CYP inhibition assay, CYP3A4; assay type: in vitro ADME; conditions: human liver microsomes, probe midazolam
Chain of CYP3A4 (P08684 whole entry): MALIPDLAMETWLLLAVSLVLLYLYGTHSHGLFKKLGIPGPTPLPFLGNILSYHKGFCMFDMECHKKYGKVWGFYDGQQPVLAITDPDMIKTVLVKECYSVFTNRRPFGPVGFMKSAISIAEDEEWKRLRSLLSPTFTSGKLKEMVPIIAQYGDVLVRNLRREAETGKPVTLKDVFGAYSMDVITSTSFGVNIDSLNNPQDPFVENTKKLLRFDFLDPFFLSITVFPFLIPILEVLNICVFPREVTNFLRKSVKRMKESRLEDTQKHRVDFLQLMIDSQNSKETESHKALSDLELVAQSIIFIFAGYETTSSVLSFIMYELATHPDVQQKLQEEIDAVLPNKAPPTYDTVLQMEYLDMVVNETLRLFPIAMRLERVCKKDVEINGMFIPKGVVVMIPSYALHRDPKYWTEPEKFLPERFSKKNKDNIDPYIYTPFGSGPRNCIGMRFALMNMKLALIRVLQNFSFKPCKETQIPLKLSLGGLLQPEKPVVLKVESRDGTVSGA
Experimental: as §2, §3

CYP2D6 = CYP2D6 (Homo sapiens (Human), UniProt P10635); assay: CYP inhibition assay, CYP2D6; assay type: in vitro ADME; conditions: human liver microsomes, probe dextromethorphan
Chain of CYP2D6 (P10635 whole entry): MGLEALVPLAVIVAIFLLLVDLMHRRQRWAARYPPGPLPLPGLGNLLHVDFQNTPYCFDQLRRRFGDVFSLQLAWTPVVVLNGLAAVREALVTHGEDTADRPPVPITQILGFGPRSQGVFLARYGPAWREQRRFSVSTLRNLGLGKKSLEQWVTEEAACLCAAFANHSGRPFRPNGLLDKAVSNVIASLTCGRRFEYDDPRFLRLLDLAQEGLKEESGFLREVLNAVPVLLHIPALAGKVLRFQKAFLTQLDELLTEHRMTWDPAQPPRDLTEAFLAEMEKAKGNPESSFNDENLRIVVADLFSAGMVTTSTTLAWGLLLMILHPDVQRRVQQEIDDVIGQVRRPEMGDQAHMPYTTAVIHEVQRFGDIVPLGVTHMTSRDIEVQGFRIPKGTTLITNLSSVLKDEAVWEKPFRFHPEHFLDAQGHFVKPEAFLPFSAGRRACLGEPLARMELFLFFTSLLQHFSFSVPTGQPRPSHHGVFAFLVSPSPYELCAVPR
Experimental: as §2, §3

CYP2C8 = CYP2C8 (Homo sapiens (Human), UniProt P10632); assay: CYP inhibition assay, CYP2C8; assay type: in vitro ADME; conditions: human liver microsomes, probe amodiquine
Chain of CYP2C8 (P10632 whole entry): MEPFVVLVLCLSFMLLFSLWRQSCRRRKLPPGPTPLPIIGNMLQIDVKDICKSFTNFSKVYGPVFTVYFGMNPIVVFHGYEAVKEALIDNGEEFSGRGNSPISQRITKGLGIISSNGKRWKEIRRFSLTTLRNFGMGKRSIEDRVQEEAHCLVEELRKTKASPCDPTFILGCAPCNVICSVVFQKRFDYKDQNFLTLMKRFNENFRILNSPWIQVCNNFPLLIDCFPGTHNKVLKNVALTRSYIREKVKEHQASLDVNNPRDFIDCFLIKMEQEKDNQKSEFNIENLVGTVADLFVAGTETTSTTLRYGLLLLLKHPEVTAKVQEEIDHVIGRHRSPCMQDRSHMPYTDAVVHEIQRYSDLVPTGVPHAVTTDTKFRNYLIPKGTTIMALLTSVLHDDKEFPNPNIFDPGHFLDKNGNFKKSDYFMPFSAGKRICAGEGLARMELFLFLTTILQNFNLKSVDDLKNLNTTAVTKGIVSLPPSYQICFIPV
Experimental: as §2, §3

CYP1A2 = CYP1A2 (Homo sapiens (Human), UniProt P05177); assay: CYP inhibition assay, CYP1A2
Chain of CYP1A2 (P05177 whole entry): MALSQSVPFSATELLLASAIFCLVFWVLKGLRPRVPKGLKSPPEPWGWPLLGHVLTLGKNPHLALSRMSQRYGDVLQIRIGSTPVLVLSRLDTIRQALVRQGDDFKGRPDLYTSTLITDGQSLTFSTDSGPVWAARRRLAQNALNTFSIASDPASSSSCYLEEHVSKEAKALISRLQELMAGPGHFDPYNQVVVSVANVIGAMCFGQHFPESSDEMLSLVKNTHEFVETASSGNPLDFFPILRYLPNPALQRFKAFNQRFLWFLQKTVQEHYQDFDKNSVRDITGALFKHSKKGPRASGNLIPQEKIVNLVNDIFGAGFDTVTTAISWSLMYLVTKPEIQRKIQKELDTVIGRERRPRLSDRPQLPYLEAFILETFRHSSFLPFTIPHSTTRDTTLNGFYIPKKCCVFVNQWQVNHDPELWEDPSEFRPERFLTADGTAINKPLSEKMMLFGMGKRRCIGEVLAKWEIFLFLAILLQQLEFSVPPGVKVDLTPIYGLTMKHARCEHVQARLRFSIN
Experimental: as §2, §3

[4] = clinical PhII trials; side effect attributed to blockade of P2X2/3 channels; cited from earlier work

Row | SMILES | Rat hepatocyte Fmax [1] [%] | Human liver microsome Fmax [2] [%] | further results
1 | Cc1cnc(-c2cc(O[C@@H]3CCOC3)cc(C(=O)N[C@H](C)c3cnc(C(F)(F)F)nc3)c2)s1 [Example 11, 3-(5-Methyl-1,3-thiazol-2-yl)-5-[(3R)-tetrahydrofuran-3-yloxy]-N-{(1R)-1-[2-(trifluoromethyl)pyrimidin-5-yl]ethyl}benzamide] | 52 | 57 | Test compound turnover after 4 h [3]: 0.9%; Vaginal hyperalgesia compared to vehicle-treated animals (vaginal hyperalgesia): decreased vaginal hyperalgesia
2 | CCc1cnc(-c2cc(OC[C@H]3CN(C)CCO3)cc(C(=O)N[C@H](C)c3ccc(C(F)(F)F)nn3)c2)s1 [Example 419, 3-(5-ethyl-1,3-thiazol-2-yl)-5-{[(2R)-4-methylmorpholin-2-yl]methoxy}-N-{(1R)-1-[6-(trifluoromethyl)pyridazin-3-yl]ethyl}benzamide] | 51 | 74 | 
3 | Cc1cnc(-c2cc(OC(C)C(C)O)cc(C(=O)N[C@H](C)c3cnc(C(F)(F)F)nc3)c2)s1 (single isomer, unassigned) [Example 339] | 52 | 94 | IC50 (CYP2C9): > 20 µM; IC50 (CYP3A4): > 20 µM; IC50 (CYP2D6): > 20 µM; IC50 (CYP2C8): > 20 µM; IC50 (CYP1A2): > 20 µM
4 | Cc1cnc(-c2cc(O[C@H]3CCOC3)cc(C(=O)N[C@H](C)c3cnc(C(F)(F)F)nc3)c2)s1 [Example 26, 3-(5-Methyl-1,3-thiazol-2-yl)-5-[(3S)-tetrahydrofuran-3-yloxy]-N-{(1R)-1-[2-(trifluoromethyl)pyrimidin-5-yl]ethyl}benzamide] | 56 | 67 | Test compound turnover after 4 h [3]: 0.9%
5 | Cc1cnc(-c2cc(OC(C)C(C)O)cc(C(=O)N[C@H](C)c3cnc(C(F)(F)F)nc3)c2)s1 (single isomer, unassigned) [Example 340] | 64 | 90 | 
6 | COc1cc(C(C)C)c(Oc2cnc(N)nc2N)cc1S(N)(=O)=O [AF-219] |  |  | taste disturbances in treated subjects [4]: leads to taste disturbances
7 | Cc1cnc(-c2cc(OC(C)C(C)O)cc(C(=O)N[C@H](C)c3ccc(C(F)(F)F)nn3)c2)s1 (single isomer, unassigned) [Example 183] | 43 | 74 | 
8 | Cc1cnc(-c2cc(OC(C)C(C)O)cc(C(=O)N[C@H](C)c3cnc(C(F)(F)F)nc3)c2)s1 (single isomer, unassigned) [Example 163] | 53 | 100 | 

Source: US10472354B2, “1,3-thiazol-2-yl substituted benzamides” (Bayer Aktiengesellschaft, priority 2014, dated 2019)
